{"source": "patent US10130655B2", "about": "“Composition and method for pre-surgical skin disinfection” (GOJO INDUSTRIES, INC., priority 2006, dated 2018)", "test": "Irritation potential, independent laboratory testing (Total Cumulative Irritation, Berger & Bowman)", "conditions": "in vivo", "excerpt": "Independent laboratory testing compared irritation potential of commercial products, controls, and a disinfecting composition according to the present invention.", "data": [{"smiles": "CCCCCCCCCCCCOS(=O)(=O)[O-].[Na+]", "note": "[Sodium Lauryl Sulfate]", "values": [{"measurement": "Berger & Bowman Classification", "result": "Possibly Mild in use"}, {"measurement": "CIT Score (Total Cumulative Irritation)", "result": 1321.0}]}]}
